Measured values from patent publication US11484032B2, “Compositions for inhibition of insect sensing” (Vanderbilt University, priority 2011, dated 2022).

Key:
Orco 28 + Orco = biological target: T1, Orco 28 + Orco (Anopheles gambiae, UniProt Q7QCC7); assay: Activity against insect odorant sensory receptors, Orco 28 + Orco (Table 1); assay type: cell-based; details: for Orco 28 + Orco Antagonist % Reduction: antagonist mode; for Orco 28 + Orco Potentiator % increase: potentiator mode
T1 construct: expressed in transfected cells
T1 sequence (Q7QCC7 1-478): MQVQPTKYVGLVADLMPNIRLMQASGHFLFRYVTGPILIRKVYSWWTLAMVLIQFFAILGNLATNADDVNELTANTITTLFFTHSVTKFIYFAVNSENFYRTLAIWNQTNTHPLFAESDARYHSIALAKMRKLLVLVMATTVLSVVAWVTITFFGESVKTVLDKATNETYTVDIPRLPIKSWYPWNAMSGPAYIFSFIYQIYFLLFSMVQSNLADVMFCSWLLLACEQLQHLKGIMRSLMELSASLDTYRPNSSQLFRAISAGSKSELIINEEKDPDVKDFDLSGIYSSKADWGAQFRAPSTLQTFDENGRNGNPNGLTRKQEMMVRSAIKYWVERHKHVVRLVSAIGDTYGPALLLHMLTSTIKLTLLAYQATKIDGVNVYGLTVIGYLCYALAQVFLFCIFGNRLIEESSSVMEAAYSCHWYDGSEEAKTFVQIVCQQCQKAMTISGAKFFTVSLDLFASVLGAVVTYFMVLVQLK
Procedure: The activity against insect odorant sensory receptors was evaluated for various disclosed compounds, and the data were collected in Table 1.

AgORco+AgOR10 [1] = biological target: T2, AgORco+AgOR10 (Anopheles gambiae, UniProt Q7QCC7); assay: Fluo-4 Ca2+ imaging, HEK293 cells expressing Orco+AgOR10; assay type: cell-based; set-up: Orco 10 + Orco Angatonist % Reduction / Orco 10 + Orco Agonist % of control: concentration or dose not given beside the values; details: Orco 10 + Orco; for Orco 10 + Orco Angatonist % Reduction: antagonist mode
T2 construct: expressed in transfected cells
T2 sequence (Q7QCC7 1-478): T1 sequence (Q7QCC7 1-478)
How it was run: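 Stable Flp-In T-REx 293 lines co-expressing Orco and OR, induced overnight with 0.3 u-g/ul tetracycline, loaded with 1.8 uM Fluo-4 AM plus 2.5 mM probenecid for 45 min at 37 °C. Ca2+ mobilization read after 20 s baseline and compound addition; Max/Min ratios normalized to the maximum responder.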

[2] = biological target: T3, mosquito odorant receptor (complex not stated) (Anopheles gambiae, UniProt Q7QCC7); assay: Agonism of mosquito odorant receptors by VUAA derivatives (complex not stated), cell-based Ca2+ imaging; details: FIGS. 23, 24, 26, 28; OR complex not stated
T3 sequence (Q7QCC7 1-478): T1 sequence (Q7QCC7 1-478)
Description: For transient transfections, ORs were cloned into pCl (Promega) and transfected into Flp-In™ T-REx™293 cell lines (Invitrogen) with Fu GENE6 (Roche). For the creation of stable cell lines, a cell culture expression vector capable of expressing Orco in conjunction with a conventional OR, pcDNA5/FRT/TO (Invitrogen) was modified to create two individual expression cassettes each under the control of a separate CMV/Tet02 promoter and a BGH poly-adenylation signal. Cells (as above) were transfected with the modified pcDNA5 plasmid along with POG44 (a Flp recombinase expression plasmid) to facilitate site-specific recombination. Stable cell lines were selected using Hygromycin B (Invitrogen). Cells were maintained in DMEM (Invitrogen) supplemented with 10% Tetracycline-free FBS (HyClone) and 15 ng/ml Blasticidin. For fluorometric Ca2+ measurements, stable lines expressing ORs of interest were seeded at 20,000 cells/well in black wall, poly-lysine coated 384-well cell culture plates (Greiner) and treated with […] tetracycline (Sigma) overnight to induce OR expression. Cells were dye-loaded with 1.8 uM Fluo-4 AM (Molecular Probes), 2.5 mM Probenecid (Molecular Probes) in assay buffer (20 mM HEPES, IX HBSS) for 45 minutes at 37° C. in 5% CO2 prior to each assay. Ca^2+ mobilization was assayed in an FDSS6000 (Hamamatsu). Baseline readings were taken for 20 s before automated addition of compound previously diluted in DMSO and assay buffer. Ratios were described as Maximum/Minimum response and each response was normalized to the maximum responder.

AgORco+AgOR10 [3] = biological target: T2, AgORco+AgOR10; assay: Whole-cell patch clamp, HEK293 cells expressing AgORco+AgOR10; assay type: cell-based; details: for whole-cell current response: holding potential −60 mV
Procedure: (§1) Currents from OR-expressing HEK293 cells were amplified with an Axopatch 200b Amplifier (Axon Instruments) and digitized through a Digidata 1322A (Axon Instruments). Electrophysiological data was recorded and analyzed using pCLAMP 10 (Axon Instruments). Electrodes were fabricated from quartz tubing (Sutter Instruments) and pulled to 4-6 MiΩ for whole cell recording. Electrodes were filled with internal solution (120 mM KCl, 30 mM D-glucose, 10 mM HEPES, 2 mM MgCl2, 1.1 mM EGTA, and 0.1 CaCl2) (pH 7.35, 280 mOsm). External (bath) solution contained 130 mM NaCl, 34 mM D-glucose, 10 mM HEPES, 1.5 mM CaCl2), 1.3 mM KH2PO4, and 0.5 MgSO4 (pH 7.35, 300 mOsm). Compounds were diluted in external solution and locally perfused to the recording cell using Perfusion Pencil (Automate Scientific) and controlled by a ValveLink 8.2 controller (Automate Scientific). Whole cell recordings were sampled at 10 kHz and filtered at 5 kHz. Outside-out patches were obtained using 10-15MΩ electrodes pulled from standard glass capillaries (World Precision Instruments) and fire-polished with an MF-830 micro forge (Narishige). Single channel recordings were sampled at 20 kHz. Recordings were reduced to 1 kHz and low-pass filtered at 500 Hz for display and analysis using QuB (SUNY at Buffalo).
(§2) To test the hypothesis that VUAA1 directly agonized AgORco, whole-cell patch clamp responses were examined in AgORco+AgOR10 expressing cells as well as HEK293 cells stably expressing AgORco alone. […] The VUAA1-dependent currents in AgORco+AgOR10 cells resembled those resulting from application of benzaldehyde, an orthosteric agonist of AgOR10 (FIG. 3C) (Wang, 2010; Carey, 2010). […] To investigate the specificity of VUAA1 agonism, the inventors transiently transfected HEK cells with the AgORco orthologs of Drosophila melanogaster and Heliothis virescens, DmORco and HvOR2 respectively.

AgORco = biological target: T4, AgORco (Anopheles gambiae, UniProt Q7QCC7); assay: Whole-cell patch clamp, HEK293 cells stably expressing AgORco alone; assay type: cell-based; details: for whole-cell current response: AgORco alone cells, holding potential −60 mV
T4 construct: expressed in transfected cells
T4 sequence (Q7QCC7 1-478): T1 sequence (Q7QCC7 1-478)
Procedure: as §1, §2

[4] = system: Un-transfected HEK293 cells; assay: Whole-cell patch clamp, un-transfected HEK293 control cells; assay type: cell-based, human
Procedure: as §1

[5] = biological target: T5, rat transient receptor potential vanilloid 1 (rTRPV1) (Rattus norvegicus, UniProt O35433); assay: Whole-cell patch clamp, HEK cells stably expressing rTRPV1; assay type: cell-based
T5 construct: expressed in transfected cells
T5 sequence (O35433 whole entry): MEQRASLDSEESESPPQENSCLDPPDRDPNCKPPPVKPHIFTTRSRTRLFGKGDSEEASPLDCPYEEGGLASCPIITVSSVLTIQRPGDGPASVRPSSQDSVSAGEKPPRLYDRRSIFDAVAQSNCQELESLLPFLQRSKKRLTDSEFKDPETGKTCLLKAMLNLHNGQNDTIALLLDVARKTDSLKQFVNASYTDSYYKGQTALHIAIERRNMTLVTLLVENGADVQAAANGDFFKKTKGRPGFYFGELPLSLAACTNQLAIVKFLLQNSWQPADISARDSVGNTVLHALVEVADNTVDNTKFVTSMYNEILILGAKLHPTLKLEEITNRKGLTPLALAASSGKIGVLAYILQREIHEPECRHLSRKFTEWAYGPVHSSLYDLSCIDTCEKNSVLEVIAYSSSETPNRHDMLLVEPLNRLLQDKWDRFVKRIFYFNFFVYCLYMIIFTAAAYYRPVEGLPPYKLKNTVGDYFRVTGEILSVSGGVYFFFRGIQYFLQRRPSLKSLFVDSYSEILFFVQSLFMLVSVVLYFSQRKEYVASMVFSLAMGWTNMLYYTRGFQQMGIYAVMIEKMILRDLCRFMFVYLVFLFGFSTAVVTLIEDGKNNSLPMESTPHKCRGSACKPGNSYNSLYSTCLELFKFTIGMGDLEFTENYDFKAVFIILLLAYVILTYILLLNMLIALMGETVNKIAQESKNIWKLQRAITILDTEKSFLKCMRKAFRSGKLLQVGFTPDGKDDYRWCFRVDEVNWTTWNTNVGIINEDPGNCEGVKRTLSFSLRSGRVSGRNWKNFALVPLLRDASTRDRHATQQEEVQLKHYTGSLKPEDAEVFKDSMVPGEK

CCn1c(COc2ccccc2)nnc1SCC(=O)Nc1cc(C)ccc1OC
Orco 28 + Orco Antagonist % Reduction (Orco 28 + Orco): 17.21%
Orco 10 + Orco Angatonist % Reduction (AgORco+AgOR10 [1]): 33.67%

CCn1c(SCC(=O)Nc2ccc(C(C)C)cc2)nnc1-c1cnn(C)c1 [D00049 row 11]
EC50 [2]: 180 µM

CCn1c(SCC(=O)Nc2ccc(C(C)C)cc2)nnc1-c1cn[nH]c1 [D00049 row 12]
EC50 [2]: 200 µM

CCn1c(Cc2c(C)[nH]c3ccccc23)nnc1SCC(=O)Nc1ccc(Br)cc1
Orco 28 + Orco Antagonist % Reduction (Orco 28 + Orco): 37.93%
Orco 10 + Orco Angatonist % Reduction (AgORco+AgOR10 [1]): 13.11%

CCn1c(SCC(=O)N2c3ccccc3Sc3ccccc32)nnc1-c1ccco1
Orco 28 + Orco Antagonist % Reduction (Orco 28 + Orco): 28.73%
Orco 10 + Orco Angatonist % Reduction (AgORco+AgOR10 [1]): 48.26%

CCn1c(SCC(=O)Nc2ccc(S(=O)(=O)Nc3ccccn3)cc2)nnc1-c1ccncc1
Orco 28 + Orco Potentiator % increase (Orco 28 + Orco): 15.45%
Orco 10 + Orco Potentiator % increase (AgORco+AgOR10 [1]; potentiator mode): 12.31%

N.N.N.N.N.N.N.N.N.N.N.N.N.N.[Cl-].[Cl-].[Cl-].[Cl-].[Cl-].[Cl-].[O-2].[O-2].[Ru+3].[Ru+3].[Ru+4] [RR, Ruthenium Red]
reduction of VUAA1-elicited currents (AgORco+AgOR10 [3]; AgORco+AgOR10 cells, agonist VUAA1): 68.3±2.8%
reduction of benzaldehyde-elicited currents (AgORco+AgOR10 [3]; AgORco+AgOR10 cells, agonist benzaldehyde): 87.8±1.8%
reduction of VUAA1 responses (AgORco; AgORco cells, agonist VUAA1): 79.4±4.0%

O=Cc1ccccc1 [Benzaldehyde]
whole-cell current response (AgORco+AgOR10 [3]; AgORco+AgOR10 cells): concentration-dependent responses
reversal potential of agonist-induced current (AgORco+AgOR10 [3]; AgORco+AgOR10 complexes, mean s.e.m.): −2.9±1.4 mV
whole-cell current response [4]: did not respond
whole-cell current response (AgORco): only Orco+AgOR10 cells responded to BA

CCn1c(Cc2ccccc2)nnc1SCC(=O)Nc1ccc(OC)cc1
Orco 28 + Orco Potentiator % increase (Orco 28 + Orco): 12.7%

CCn1c(SCC(=O)Nc2ccc(C(C)C)cc2)nnc1-c1cccnc1 [D00049 row 2]
EC50 [2]: 20 µM

Nc1nc2c(nc(Br)n2[C@@H]2O[C@@H]3COP(=O)(O)O[C@H]3[C@H]2O)c(=O)[nH]1 [8-Br cGMP, 8-Br-cGMP]
whole-cell current response (AgORco+AgOR10 [3]; AgORco+AgOR10 cells): unable to evoke whole-cell currents
whole-cell current response (AgORco): unable to evoke whole-cell currents

COc1cc(CNC(=O)CCCC/C=C/C(C)C)ccc1O [Capsaicin, capsaicin, reference compound]
whole-cell current response [5]: robust response

CCn1c(SCC(=O)Nc2ccc(Cl)cc2C)nnc1-c1ccncc1
Orco 28 + Orco Potentiator % increase (Orco 28 + Orco): 17.69%

Nc1ncnc2c1nc(Br)n2[C@@H]1O[C@@H]2COP(=O)(O)O[C@H]2[C@H]1O [8-Br cAMP, 8-Br-cAMP]
whole-cell current response (AgORco+AgOR10 [3]; AgORco+AgOR10 cells): unable to evoke whole-cell currents
whole-cell current response (AgORco): unable to evoke whole-cell currents

CCn1c(CNC(=O)c2ccco2)nnc1SCC(=O)Nc1cc(C)c(C)cc1Br
Orco 28 + Orco Potentiator % increase (Orco 28 + Orco): 12.28%
